Test results taken from patent publication US9409866B2, “Pyridine-2-amides useful as CB2 agonists” (Hoffmann-La Roche Inc., priority 2012, dated 2016).
Like-named read-outs stand apart in the source and are kept apart here.

Tests used:
[1] = biological target: human CB1 receptors (Homo sapiens (Human), UniProt P21554); assay: functional cAMP assay, CHO cells expressing human CB1; assay type: cell-based
In short: (§1)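 Cells are seeded 17-24 h ahead, then preincubated in Krebs Ringer bicarbonate buffer with 1 mM IBMX at 30 °C. Compounds act for 30 min at 30 °C, after which lysis and cAMP detection reagents are added for 2 h at room temperature. Time-resolved FRET gives cAMP content, and EC50 values are fitted from it.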

[2] = biological target: human CB2 receptors (Homo sapiens (Human), UniProt P34972); assay: functional cAMP assay, CHO cells expressing human CB2; assay type: cell-based
In short: as §1

[3] = functional cAMP assay, CHO cells expressing human CB1; read-out: Human CB1 EC50
[4] = Human CB1 EC50 (uM), functional cAMP assay, CHO cells expressing human CB1

Sequence of human CB2 receptors (P34972 whole entry): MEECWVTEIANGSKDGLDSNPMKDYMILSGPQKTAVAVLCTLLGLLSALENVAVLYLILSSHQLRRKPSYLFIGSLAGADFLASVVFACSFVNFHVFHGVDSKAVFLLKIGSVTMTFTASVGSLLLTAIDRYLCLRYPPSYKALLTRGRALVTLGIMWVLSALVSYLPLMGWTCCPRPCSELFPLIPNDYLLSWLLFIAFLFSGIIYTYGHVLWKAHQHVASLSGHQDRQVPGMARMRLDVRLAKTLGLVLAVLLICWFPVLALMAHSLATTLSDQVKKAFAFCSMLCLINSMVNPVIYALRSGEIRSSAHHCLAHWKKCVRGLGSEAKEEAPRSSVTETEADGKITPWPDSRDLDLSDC
Sequence of human CB1 receptors (P21554 whole entry): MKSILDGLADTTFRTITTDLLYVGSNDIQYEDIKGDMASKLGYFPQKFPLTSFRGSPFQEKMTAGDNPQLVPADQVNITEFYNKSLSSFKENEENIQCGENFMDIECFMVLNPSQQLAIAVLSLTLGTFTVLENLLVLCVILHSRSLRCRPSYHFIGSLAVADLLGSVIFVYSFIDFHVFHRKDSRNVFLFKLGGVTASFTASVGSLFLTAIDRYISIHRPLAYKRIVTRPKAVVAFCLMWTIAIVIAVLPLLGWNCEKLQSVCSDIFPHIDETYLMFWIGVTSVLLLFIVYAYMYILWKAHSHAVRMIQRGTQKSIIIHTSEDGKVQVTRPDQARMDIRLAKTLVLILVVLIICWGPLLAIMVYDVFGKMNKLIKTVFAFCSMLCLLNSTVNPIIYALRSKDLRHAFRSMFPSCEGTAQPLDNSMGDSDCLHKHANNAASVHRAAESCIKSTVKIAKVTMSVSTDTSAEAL

Structure (SMILES) | EC50 [1, 3] [µM] | EC50 ([2]; read-out: Human CB2 EC50) [µM] | EC50 [1, 4] [µM] | EC50 ([2]; Human CB2 EC50 (uM)) [µM] | EC50 ([1]; read-out: Human CB1 EC50; functional cAMP assay, CHO cells expressing human CB1) [µM]
CC(C)C[C@H](NC(=O)c1cc(-c2cccc(Cl)c2)c(Cl)cn1)C(N)=O [Example 3, 5-Chloro-4-(3-chloro-phenyl)-pyridine-2-carboxylic acid ((S)-1-carbamoyl-3-methyl-butyl)-amide] | > 10 | 0.466 |  |  | 
Cc1nc(C(C)(CS(C)(=O)=O)NC(=O)c2cc(O[C@@H](C)C(F)(F)F)c(C3(F)CCC3)cn2)no1 (stereo partly drawn) [Example 137, 5-(1-fluorocyclobutyl)-N-[2-(5-methyl-1,2,4-oxadiazol-3-yl)-1-methylsulfonylpropan-2-yl]-4-[(2S)-1,1,1-trifluoropropan-2-yl]oxypyridine-2-carboxamide] | > 10 | 0.0105 |  |  | 
CNC(=O)[C@@H](NC(=O)c1cc(OCC(F)(F)F)c(C2CC2)cn1)C(C)(C)C [Example 48, 5-Cyclopropyl-4-(2,2,2-trifluoro-ethoxy)-pyridine-2-carboxylic acid ((S)-2,2-dimethyl-1-methylcarbamoyl-propyl)-amide] | 0.661 | 0.00158 |  |  | 
CC(CC(N)=O)(NC(=O)c1cc(OCC(F)(F)F)c(N2CC(F)(F)C2)cn1)C1CC1 (single isomer, unassigned) [Example 275, N-[4-amino-2-cyclopropyl-4-oxobutan-2-yl]-5-(3,3-difluoroazetidin-1-yl)-4-(2,2,2-trifluoroethoxy)pyridine-2-carboxamide] |  |  | > 10 | 0.0227 | 
CNC(=O)CC1(NC(=O)c2cc(OCC(F)(F)F)c(C3(F)CCC3)cn2)CS(=O)(=O)C1 [Example 285, 5-(1-fluorocyclobutyl)-N-[3-[2-(methylamino)-2-oxoethyl]-1,1-dioxothietan-3-yl]-4-(2,2,2-trifluoroethoxy)pyridine-2-carboxamide] | > 10 | 1.44 |  |  | 
CCC(CC)(NC(=O)c1cc(OCC2CC2)c(C2CC2)cn1)C(=O)NC [Example 45, 5-Cyclopropyl-4-cyclopropylmethoxy-pyridine-2-carboxylic acid (1-ethyl-1-methylcarbamoyl-propyl)-amide] | > 10 | 0.017 |  |  | 
CC(CC1CC1)(NC(=O)c1cc(OCC(F)(F)F)c(C2CC2)cn1)c1noc(N)n1 (stereo not shown) [Example 165, N-[2-(5-amino-1,2,4-oxadiazol-3-yl)-1-cyclopropylpropan-2-yl]-5-cyclopropyl-4-(2,2,2-trifluoroethoxy)pyridine-2-carboxamide] | > 10 | 0.022 |  |  | 
C[C@H](Oc1cc(C(=O)NC(c2noc(N)n2)C(C)(C)C)ncc1C1CC1)C(F)(F)F (stereo partly drawn) [Example 213, N-[1-(5-amino-1,2,4-oxadiazol-3-yl)-2,2-dimethylpropyl]-5-cyclopropyl-4-[(2S)-1,1,1-trifluoropropan-2-yl]oxypyridine-2-carboxamide] | > 10 | 0.0111 |  |  | 
Cc1nc([C@](C)(CC2CC2)NC(=O)c2cc(OCC(F)(F)F)c(C3CC3)cn2)no1 (single isomer, unassigned; enantiomer b) [Example 67, 5-Cyclopropyl-4-(2,2,2-trifluoro-ethoxy)-pyridine-2-carboxylic acid [2-cyclopropyl-1-methyl-1-(5-methyl-[1,2,4]oxadiazol-3-yl)-ethyl]-amide (enantiomer B)] |  |  | 5.28 | 0.0037 | 
O=C(NC(c1ccccn1)C(F)(F)F)c1cc(OCC2CC2)c(C2CC2)cn1 (stereo not shown) [Example 46, 5-Cyclopropyl-4-cyclopropylmethoxy-pyridine-2-carboxylic acid (2,2,2-trifluoro-1-pyridin-2-yl-ethyl)-amide] | > 10 | 0.0067 |  |  | 
CNC(=O)C(NC(=O)c1cc(OCC(F)(F)F)c(C2CC2)cn1)C(C)(C)O (stereo not shown) [Example 236, 5-cyclopropyl-N-[3-hydroxy-3-methyl-1-(methylamino)-1-oxobutan-2-yl]-4-(2,2,2-trifluoroethoxy)pyridine-2-carboxamide] | > 10 | 0.0512 |  |  | 
Cc1nnc(C(NC(=O)c2cc(OCC(F)(F)F)c(C3CC3)cn2)C(C)(C)C)o1 (single isomer, unassigned) [Example 179, 5-cyclopropyl-N-[2,2-dimethyl-1-(5-methyl-1,3,4-oxadiazol-2-yl)propyl]-4-(2,2,2-trifluoroethoxy)pyridine-2-carboxamide] |  |  |  | 0.0351 | > 10
Cc1nc(C(C)(NC(=O)c2cc(O[C@@H](C)C(F)(F)F)c(C3(F)COC3)cn2)C2CC2)no1 (stereo partly drawn) [Example 144, N-[1-cyclopropyl-1-(5-methyl-1,2,4-oxadiazol-3-yl)ethyl]-5-(3-fluorooxetan-3-yl)-4-[(2S)-1,1,1-trifluoropropan-2-yl]oxypyridine-2-carboxamide] | > 10 | 0.0141 |  |  | 
CC(C)[C@H](CO)NC(=O)c1cc(OCC2CC2)c(Cl)cn1 [Example 11, 5-Chloro-4-cyclopropylmethoxy-pyridine-2-carboxylic acid ((R)-1-hydroxymethyl-2-methyl-propyl)-amide] | > 10 | 0.0554 |  |  | 
O=C(NCC1(O)CCCCC1)c1cc(OCC2CC2)c(C2CC2)cn1 [Example 57, 5-Cyclopropyl-4-cyclopropylmethoxy-pyridine-2-carboxylic acid (1-hydroxy-cyclohexylmethyl)-amide] | > 10 | 0.013 |  |  | 
CC(C)(C)C(NC(=O)c1cc(OC2COC2)c(Cl)cn1)c1nccs1 (stereo not shown) [Example 39, 5-Chloro-4-(oxetan-3-yloxy)-pyridine-2-carboxylic acid (2,2-dimethyl-1-thiazol-2-yl-propyl)-amide] | > 10 | 0.128 |  |  | 
Cc1nc([C@](C)(CC(C)(C)C)NC(=O)c2cc(OCC(F)(F)F)c(C3CC3)cn2)no1 (single isomer, unassigned) [Example 105, 5-Cyclopropyl-4-(2,2,2-trifluoro-ethoxy)-pyridine-2-carboxylic acid [1,3,3-trimethyl-1-(5-methyl-[1,2,4]oxadiazol-3-yl)-butyl]-amide] |  |  | 0.33 | 0.0023 | 
COC(=O)C(C)(C)NC(=O)c1cc(I)c(Cl)cn1 [Example 1, 2-[(5-Chloro-4-iodo-pyridine-2-carbonyl)-amino]-2-methyl-propionic acid methyl ester] | > 10 | 0.0356 |  |  | 
NC(=O)CC1(NC(=O)c2cc(OCC3CC3)c(N3CC(F)(F)C3)cn2)COC1 [Example 222, N-[3-(2-amino-2-oxoethyl)oxetan-3-yl]-4-(cyclopropylmethoxy)-5-(3,3-difluoroazetidin-1-yl)pyridine-2-carboxamide] | > 10 | 0.0467 |  |  | 
NC(=O)CC1(NC(=O)c2cc(OCCF)c(C3CC3)cn2)CS(=O)(=O)C1 [Example 281, N-[3-(2-amino-2-oxoethyl)-1,1-dioxothietan-3-yl]-5-cyclopropyl-4-(2-fluoroethoxy)pyridine-2-carboxamide] | > 10 | 0.0231 |  |  | 
Cc1nnc(C(NC(=O)c2cc(OCC(F)(F)F)c(C3CC3)cn2)C2(C)COC2)o1 (stereo not shown) [Example 245, 5-cyclopropyl-N-[(5-methyl-1,3,4-oxadiazol-2-yl)-(3-methyloxetan-3-yl)methyl]-4-(2,2,2-trifluoroethoxy)pyridine-2-carboxamide] | > 10 | 0.997 |  |  | 
Cc1nc(C(C)(NC(=O)c2cc(OCC(F)(F)F)c(Cl)cn2)C2CC2)no1 (stereo not shown) [Example 62, 5-Chloro-4-(2,2,2-trifluoro-ethoxy)-pyridine-2-carboxylic acid [1-cyclopropyl-1-(5-methyl-[1,2,4]oxadiazol-3-yl)-ethyl]-amide] | > 10 | 0.0089 |  |  | 
O=C(NC1(CO)CCCC1)c1cc(OCC2CC2)c(Cl)cn1 [Example 6, 5-Chloro-4-cyclopropylmethoxy-pyridine-2-carboxylic acid (1-hydroxymethyl-cyclopentyl)-amide] | > 10 | 0.0524 |  |  | 
NC(=O)[C@H]1CC(F)(F)CN1C(=O)c1cc(OCC(F)(F)F)c(C2CC2)cn1 [Example 122, (2R)-1-[5-cyclopropyl-4-(2,2,2-trifluoroethoxy)pyridine-2-carbonyl]-4,4-difluoropyrrolidine-2-carboxamide] | > 10 | 0.399 |  |  | 
CC(CC(N)=O)(NC(=O)c1cc(OCC(F)(F)F)c(C2(F)CCC2)cn1)C1CC1 (single isomer, unassigned) [Example 309, N-[4-amino-2-cyclopropyl-4-oxobutan-2-yl]-5-(1-fluorocyclobutyl)-4-(2,2,2-trifluoroethoxy)pyridine-2-carboxamide] |  |  | 0.475 | 0.002 | 
CC(CF)Oc1cc(C(=O)NC(C)(CC(N)=O)C2CC2)ncc1C1CC1 (single isomer, unassigned) [Example 304, N-(4-amino-2-cyclopropyl-4-oxobutan-2-yl)-5-cyclopropyl-4-(1-fluoropropan-2-yloxy)picolinamide] | 0.82 | 0.0021 |  |  | 
C[C@H](Oc1cc(C(=O)NC2(CC(N)=O)CS(=O)(=O)C2)ncc1C1(F)COC1)C(F)(F)F [Example 265, N-[3-(2-amino-2-oxoethyl)-1,1-dioxothietan-3-yl]-5-(3-fluorooxetan-3-yl)-4-[(2S)-1,1,1-trifluoropropan-2-yl]oxypyridine-2-carboxamide] | > 10 | 0.102 |  |  | 
CCC(CC)(CO)NC(=O)c1cc(OCC(F)(F)F)c(C2CC2)cn1 [Example 54, 5-Cyclopropyl-4-(2,2,2-trifluoro-ethoxy)-pyridine-2-carboxylic acid (1-ethyl-1-hydroxymethyl-propyl)-amide] | > 10 | 0.0185 |  |  | 
Cc1nc(C(C)(CS(C)(=O)=O)NC(=O)c2cc(O[C@@H](C)C(F)(F)F)c(C3CC3)cn2)no1 (stereo partly drawn) [Example 81, 5-Cyclopropyl-4-((S)-2,2,2-trifluoro-1-methyl-ethoxy)-pyridine-2-carboxylic acid [2-methanesulfonyl-1-methyl-1-(5-methyl-[1,2,4]oxadiazol-3-yl)-ethyl]-amide] |  |  | 0.19 | 0.0053 | 
